From patent US10449206B2, “Indolealkylamino-withasteroid conjugates and method of use” (Natreon, Inc., priority 2011, dated 2019)
Counter-ions that a name gives are not always drawn. Marks after values point to notes of the source that are not given here.

What was measured:
[1] = molecular target: acetylcholinesterase (AChE) (Homo sapiens, UniProt P22303); assay: In vitro acetylcholinesterase (AChE) activity assay, method of Ellman et al. with acetylthiocholine iodide as substrate; assay type: biochemical; settings: for IC50: Mean ± SD of three replicates, synthetic conjugates, read-out: Acetylcholinesterase inhihitory activity IC50 (converted)
Procedure: The acetylcholinesterase (AChE) assay was performed by the method of Ellman et al., with minor modification, using acetylthiocholine Iodide as a substrate (G. L. Ellman, et al., “A new and rapid colorimetric determination of acetylcholinesterase activity,” Biochem. Pharmacol. (1961) 7: 88-95). Ellman's reaction mixture was made from a combination of 10 mM Acetylthiocholine iodide and 0.5 mM 5,5′-dithio-bis-(2-nitrobenzoic acid) in a 0.05 M sodium phosphate buffer (pH 7.2). The rates of hydrolysis by AChE were monitored spectrophotometrically using a 96-well microtiter plate reader. Each test sample (10 μl) and 0.05 M sodium phosphate buffer (30 μl) was mixed with the enzyme solution (10 μl). An Ellman's reaction mixture (50 μl) was further added to give a final volume of 100 μl, and the mixture was incubated at 37° C. for 30 min. Absorbance at 450 nm was recorded immediately after adding the Ellman's reaction mixture. Reading was repeated for 10 min at 2 min intervals to verify that the reaction occurred linearly. Blank reaction was measured by substituting saline for the enzyme (Y. K. Chung, et al., “Inhibitory effect of ursolic acid purified from Origanum majorana L. on the acetylcholinesterase,” Mol. Cells (2001) 11: 137-143).
The acetylcholinesterase (AChE) assay was performed by the method of Ellman et. al., with minor modification, using acetylthiocholine Iodide as a substrate (G. L. Ellman, et al., “A new and rapid colorimetric determination of acetylcholinesterase activity,” Biochem. Pharmacol. (1961) 7: 88-95). Ellman's reaction mixture was made from a combination of 10 mM Acetylthiocholine iodide and 0.5 mM 5,5′-dithio-bis-(2-nitrobenzoic acid) in a 0.05 M sodium phosphate buffer (pH 7.2). The rates of hydrolysis by AChE were monitored spectrophotometrically using a 96-well microtiter plate reader. Each test sample (10 μl) and 0.05 M sodium phosphate buffer (30 μl) was mixed with the enzyme solution (10 μl). An Ellman's reaction mixture (50 μl) was further added to give a final volume of 100 μl, and the mixture was incubated at 37° C. for 30 min. Absorbance at 450 nm was recorded immediately after adding the Ellman's reaction mixture. Reading was repeated for 10 min at 2 min intervals to verify that the reaction occurred linearly. Blank reaction was measured by substituting saline for the enzyme (Y. K. Chung, et al., “Inhibitory effect of ursolic acid purified from Origanum majorana L. on the acetylcholinesterase,” Mol. Cells (2001) 11: 137-143).

[2] = system: Scopolamine-induced amnesic mice; assay: Scopolamine hydrobromide-induced amnesia, transfer latency on elevated plus maze; settings: for Transfer Latency, Day 8: learning trial; for % Decrease in Transfer Latency, Mean ± SD: Table 16
Procedure: The elevated plus maze is used to measure the memory learning activity in mice; however, transfer latency, i.e., the time elapsed between the movement of the animal from an open to an enclosed arm was markedly shortened if the animal had previously experienced entering open and closed arms.
Retention was recorded after 24 hrs (9th day) and after an interval of one week (16th day).
Drug protocol. The animals were divided into 7 groups (Group I-VII) of eight animals in each group. Group I received vehicle (0.3% CMC) only and served as vehicle control. Groups II-VII were treated with the respective test drugs, as per the details mentioned in Table 1 below, for 16 days. […] Transfer Latency was recorded after 45 minutes of the drug administration on 8th day (learning trial) and 24 hrs (9th day) and one week (16th day) after learning trial.
Retention in elevated plus maze test was used to assess the memory functions in test animals. The plus maze consists of two open opposite arms, (50×10 cm) length×width, crossed with two enclosed arms of same dimensions with walls 40 cm high. The arms are connected with a central square, (10×10 cm) to give the apparatus a plus-sign appearance. The maze was kept elevated 50 cm above the floor in a dimly lit room. On day 8, mice were individually placed on far end of one of the open arms facing away from the center and transfer latency (TL) on day 8 was recorded. TL is the time taken by the mouse to move into any one of the covered arms with all its four legs. […] On day 9, the mice were again placed on the far end of the open arm and time taken by the mice to enter the enclosed arm, transfer latency (TL) day 9, was recorded. Similarly after an interval of one week, on day 16, the transfer latency (TL) day 16 was again recorded.
The retention scores were obtained for each animal by calculating percent decrease in latency period by the formula: % decrease in TL=(L1−L0/L0)×100
where, L0=initial transfer latency period in seconds, and L1=transfer latency after 24 hrs, or one week.

[3] = system: brain tissue Malondialdehyde (MDA); assay type: in vivo, Swiss Albino mice; settings: day 16; test sample p.o. (50/20/30/1/1 mg/kg) + SH 0.5 mg/kg i.p.; mean ± SEM, n=4
Source text: Estimation of lipid peroxidation.
Alzheimer's disease (AD) is an irreversible neurodegenerative disorder having symptoms including confusion, memory loss, and mood swings. The beta-amyloid peptide (BAP), with 39-42 amino acid residues, plays a significant role in the development of AD. Although there is no cure for AD, it can be managed with available drugs, but only to a small degree in a small subset of patients. […] In this study, the lipid peroxidation levels in brains of different treatment groups were measured by estimating the brain tissue Malondialdehyde (MDA) concentration. 5.

mice = assay: Open-field exploratory behavior test, anxiety paradigm; parameters: species or system Swiss Albino mice; settings: mouse, in vivo
Procedure: Drug preparation and administration of doses.
Study design. The behavioral tests conducted with multiple seven-dose schedules. The mice were tested only once after the completion of the drug treatment schedule in the elevated plus maze and open field. The studies were carried out in a sound proof room to avoid disturbances to the animals during the behavioral studies. Exposure to a novel environment is associated with emotional disturbance and anxiety. […] Anxiety is also associated with augmented autonomic activity resulting in increased defecation and urination. All these effects are accentuated by anxiogenic drugs and attenuated by anxiolytics. Standard screening procedures such as open field method and elevated plus maze test were used to screen the anxiolytic effect of drugs in comparison with a standard drug, Diazepam.
Open-field exploratory behavior test. The open field exploratory apparatus is similar to that of Bronstein (P. M. Bronstein, “Open field behaviour of the rat as a function of age: cross sectional and longitudinal investigations,” J. Comp. Physiol. Psycol. (1972) 80: 335-341). It is made of plywood and consists of squares (61×61 cm) with high walls. […] The ratio between the number of times the animal crossed the central and the number of times the animal crossed the peripheral square is calculated.

[4] = Example 7B, synthetic conjugates 1 and 5 mg/kg p.o. 16 days
[5] = Table 15, conjugate 1 mg/kg p.o. + SH 0.5 mg/kg i.p., mean ± SD, n=8
[6] = Table 15, conjugate 1 mg/kg p.o., mean ± SD, n=8
[7] = Table 15, conjugate 5 mg/kg p.o. + SH 0.5 mg/kg i.p., mean ± SD, n=8
[8] = Table 15, conjugate 5 mg/kg p.o., mean ± SD, n=8
[9] = after 24 h (day 9), conjugate 1 mg/kg p.o. + SH 0.5 mg/kg i.p., n=8
[10] = after 24 h (day 9), conjugate 5 mg/kg p.o. + SH 0.5 mg/kg i.p., n=8
[11] = Table 17, after 1 week (day 16), conjugate 1 mg/kg p.o. + SH 0.5 mg/kg i.p., n=8
[12] = Table 17, after 1 week (day 16), conjugate 5 mg/kg p.o. + SH 0.5 mg/kg i.p., n=8
[13] = Table 2, SH 0.5 mg/kg i.p. alone, mean ± SEM
[14] = Table 15, SH 0.5 mg/kg i.p. alone, mean ± SD

acetylcholinesterase (AChE), sequence (P22303 32-614, species assumed): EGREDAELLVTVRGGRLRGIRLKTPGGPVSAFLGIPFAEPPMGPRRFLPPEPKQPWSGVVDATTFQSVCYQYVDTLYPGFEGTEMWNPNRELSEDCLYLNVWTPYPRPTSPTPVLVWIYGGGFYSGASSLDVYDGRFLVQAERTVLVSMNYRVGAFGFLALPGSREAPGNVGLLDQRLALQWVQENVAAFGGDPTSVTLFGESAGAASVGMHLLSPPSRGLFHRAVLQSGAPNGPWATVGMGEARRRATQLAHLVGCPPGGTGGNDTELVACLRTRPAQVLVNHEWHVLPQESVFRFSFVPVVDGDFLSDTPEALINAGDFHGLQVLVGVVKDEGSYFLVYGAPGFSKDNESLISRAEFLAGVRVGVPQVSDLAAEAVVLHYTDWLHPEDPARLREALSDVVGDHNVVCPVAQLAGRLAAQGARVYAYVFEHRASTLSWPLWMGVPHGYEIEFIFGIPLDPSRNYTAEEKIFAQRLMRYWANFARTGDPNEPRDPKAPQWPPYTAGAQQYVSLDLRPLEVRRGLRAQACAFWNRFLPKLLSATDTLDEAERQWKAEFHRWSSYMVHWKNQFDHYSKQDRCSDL

Compound | in vitro acetylcholinesterase inhibitory activity (in words) [1] | IC50 [1] [µM] | effect on Scopolamine-induced amnesia (in words) [2, 4] | Transfer Latency, Day 9 [2, 5] | Transfer Latency, Day 16 [2, 5] | Transfer Latency, Day 8 [2, 6] [s] | Transfer Latency, Day 9 [2, 7] | Transfer Latency, Day 16 [2, 7] | Transfer Latency, Day 8 [2, 8] [s] | % Decrease in Transfer Latency, Mean ± SD [2, 9] [%] | % Decrease in Transfer Latency, Mean ± SD [2, 10] | % Decrease in Transfer Latency, Mean ± SEM [2, 11] | % Decrease in Transfer Latency, Mean ± SEM [2, 12] | further results
COc1ccc2[nH]cc(CCNC3CC(=O)[C@]4(C)[C@H]5CC[C@]6(C)[C@@H]([C@H](C)[C@H]7CC(C)=C(CO)C(=O)O7)CC[C@H]6[C@@H]5C[C@H]5O[C@]54[C@H]3O)c2c1 (stereo partly shown) | good dose-dependent in-vitro acetylcholinesterase inhibitory activity | 149 | significantly attenuated and reversed the Scopolamine-induced amnesia | 76.63 ± 33.95 s | 43.13 ± 12.43 s | 139.1 ± 25.05 | 37.25 ± 4.43^bb s | 18.00 ± 4.14^bbb s | 141.00 ± 35.66 | 45.62 ± 16.51 | 72.18 ± 6.60. % | 69.13 ± 5.38% | 85.79 ± 9.92^bb % | 
CN1[C@@H]2C[C@@H](OC(=O)[C@H](CO)c3ccccc3)C[C@H]1[C@@H]1O[C@@H]12 [SH, Scopolamine Hydrobromide, reference compound] |  |  |  |  |  |  |  |  |  |  |  |  |  | induction of amnesia (in words) ([2]; SH 0.5 mg/kg i.p. alone vs vehicle): produced amnesia in animals; Transfer Latency, Day 8 ([2]; Table 2, SH 0.5 mg/kg i.p. alone group, mean ± SEM): 171.50 ± 16.08 s; Transfer Latency, Day 9 [2, 13]: 143.90 ± 15.30 s; Transfer Latency, Day 16 [2, 13]: 133.10 ± 15.95 s; % Decrease in Transfer Latency, Mean ± SEM ([2]; Table 3, after 24 h (day 9), SH 0.5 mg/kg i.p. alone): 14.91 ± 5.75%; % Decrease in Transfer Latency, Mean ± SEM ([2]; Table 4, after 1 week (day 16), SH 0.5 mg/kg i.p. alone): 22.11 ± 5.03%; Transfer Latency, Day 8 ([2]; Table 15, SH 0.5 mg/kg i.p. alone group, mean ± SD): 160.00 ± 66.68 s; Transfer Latency, Day 9 [2, 14]: 106.00 ± 42.81^aa s; Transfer Latency, Day 16 [2, 14]: 48.17 ± 12.73 ^aaa s; % Decrease in Transfer Latency, Mean ± SD ([2]; after 24 h (day 9), SH 0.5 mg/kg i.p. alone): 29.86 ± 17.79%; % Decrease in Transfer Latency, Mean ± SEM ([2]; Table 17, after 1 week (day 16), SH 0.5 mg/kg i.p. alone): 63.54 ± 18.87^aa %
CC1=C(CO)C(=O)O[C@@H]([C@@H](C)[C@H]2CC[C@H]3[C@@H]4C[C@H]5O[C@]56[C@@H](O)C(NCCc5c[nH]c7ccccc57)CC(=O)[C@]6(C)[C@H]4CC[C@]23C)C1 (stereo partly shown) [Tryptamino-withaferin-A conjugate] | good dose-dependent in-vitro acetylcholinesterase inhibitory activity | 56.1 | significantly attenuated and reversed the Scopolamine-induced amnesia | 56.17 ± 21.99^b s | 16.50 ± 9.52^bbb s | 178.00 ± 117.90 | 51.67 ± 15.28 ^b s | 15.17 ± 10.09^bbb s | 159.00 ± 126.20 | 54.97 ± 27.54 | 59.93 ± 13.31% | 88.10 ± 6.17^b % | 85.72 ± 11.96^bb % | 
CC1=C(CO)C(=O)O[C@@H]([C@@H](C)[C@H]2CC[C@H]3[C@@H]4C[C@H]5O[C@]56[C@@H](O)C=CC(=O)[C@]6(C)[C@H]4CC[C@]23C)C1 [Withaferin-A, Withaferin A, reference compound] | only feeble inhibitory activity |  |  |  |  |  |  |  |  |  |  |  |  | effect on Scopolamine-induced amnesia (in words) ([2]; Example 4A, WS extract and fractions p.o. 16 days): did not protect from or attenuate the Scopolamine-induced amnesia; Transfer Latency, Day 9 ([2]; Table 2, 24 h after SH 0.5 mg/kg i.p., test sample p.o. (50/20/30/1/1 mg/kg), mean ± SEM, n=8): 124.00 ± 13.27 s; Transfer Latency, Day 8 ([2]; Table 2, test sample p.o. daily (WS-74 50, Ace Sol 20, Ace Insol 30, IAEF-A 1, Withaferin-A 1 mg/kg), mean ± SEM, n=8): 180.40 ± 8.04 s; Transfer Latency, Day 16 ([2]; Table 2, one week after SH 0.5 mg/kg i.p., test sample p.o. 16 days (50/20/30/1/1 mg/kg), mean ± SEM, n=8): 114.90 ± 13.10 s; % Decrease in Transfer Latency, Mean ± SEM ([2]; Table 3, after 24 h (day 9), test sample p.o. (50/20/30/1/1 mg/kg) + SH 0.5 mg/kg i.p., n=8): 29.28 ± 9.43%; % Decrease in Transfer Latency, Mean ± SEM ([2]; Table 4, after 1 week (day 16), test sample p.o. (50/20/30/1/1 mg/kg) + SH 0.5 mg/kg i.p., n=8): 34.33 ± 9.30%; MDA Content, brain tissue [3]: 4.77 ± 0.07 nmol/mL; anxiolytic effect in open field test (in words) (mice): did not show any anxiolytic effect
